For 7 compounds, IC50 results are on record in patent publication US10570151B2, “Biologically active molecules, conjugates thereof, and therapeutic uses” (priority 2013, dated 2020).

Holding throughout (format): cell-based
One assay deals with HEK293 cells. Nature of the assay: Anti-proliferation activity of unconjugated compounds in HEK293. The settings on record: Homo sapiens. Here is the method: (§1) Cells were seeded in PDL-coated 96 well plates at 375 (MMT/hEGFRvIII), 1500 (U251/hEGFRvIII), 2000 (HEK293/hEGFRvIII), or 3000 (C4-2, PC3/hSTEAP1, T47D, and U87-MG) cells per well in complete growth media and grown overnight. For cell viability curves, serially diluted conjugates or free representative payloads were added to the cells at final concentrations ranging from 500 nM to 1 pM and incubated for 3 days. To measure viability in MMT/hEGFRvIII, U251/hEGFRvIII, HEK293/hEGFRvIII, C4-2, PC3/hSTEAP1, and U87-MG, cells were incubated with CCK8 (Dojindo) for the final 1-3 hours and the absorbance at 450 nm (OD450) was determined on a Flexstation3 (Molecular Devices). To measure viability in T47D, cells were incubated on ice for 30 min in 4% formaldehye+3 ug/ml Hoechst. Images of Hoechst stained nuclei were acquired on the ImageXpress Micro XL (Molecular Devices) and nuclear counts were determined with the Columbus analysis software (PerkinElmer). Background OD450 levels (CCK8) or nuclear counts from digitonin ([…]) treated cells were subtracted from all wells and viability is expressed as a percentage of the untreated controls. IC50 values were determined from a four-parameter logistic equation over a 10-point response curve (GraphPad Prism). All curves and IC50 values are corrected for payload equivalents.
(§2) In a separate set of experiments, compound 6, along with amino analogs 27, 29, and 31 were assayed in HEK293 and U87MG for anti-proliferation activity (FIG. 7). […] (For these experiments, background correction with digitonin was not performed).
(§3) In yet another set of experiments, compounds 6, 9, 33, and 35 were assayed in HEK293, U251, C4-2, PC3, and MMT for anti-proliferation activity (FIG. 8). The trend in potency follows 9>33>35>6 and is consistent for the 5 cell lines assayed.

The subject of assay [1] is C4-2 cells (prostate cancer line). Description: In vitro cytotoxicity (cell viability, CCK8) in C4-2 cells. Particulars: C4-2, unconjugated (Table 2, FIG. 8). The protocol: as §1
The next assay concerns PC3 cells. Description: Anti-proliferation activity of unconjugated compounds in PC3. The settings on record: Homo sapiens, PC-3; PC3, unconjugated (Table 2, FIG. 8). Here is the method: as §1, §3
The next assay relates to U87MG cells. Nature of the assay: Anti-proliferation activity of unconjugated compounds in U87MG. The settings on record: Homo sapiens, U-87 MG, background correction with digitonin not performed (FIG. 7). Here is the method:
as §1, §2

For another assay, the system named is MMT cells. Description: Anti-proliferation activity of unconjugated compounds in MMT. Particulars: unconjugated (Table 2, FIG. 8). Here is the method: as §1, §3
For a further assay, the system named is U251 cells. Description: Anti-proliferation activity of unconjugated compounds in U251. Particulars: Homo sapiens, U-251; U251, unconjugated (Table 2, FIG. 8). The protocol:
as §1, §3

[2] abbreviates: HEK293, unconjugated (Table 2, FIG. 8), read-out: IC50 (nM) HEK293.
[3] abbreviates: HEK293, unconjugated, background correction with digitonin not performed (FIG. 7), read-out: IC50.

Like-named read-outs stand apart in the source and are kept apart here.

The term IC50 denotes the concentration needed to halve the response being measured. `CNCCC(=O)N(C)[C@@H](C)C(=O)O[C@H]1CC(=O)N(C)c2cc(cc(OC)c2Cl)C/C(C)=C/C=C/[C@@H](OC)[C@@]2(O)C[C@H](OC(=O)N2)[C@@H](C)[C@@H]2O[C@@]12C` [Compound 6]: the half-maximal inhibitory concentration (IC50) with HEK293 cells (setting [2]) was 200 nM; with HEK293 cells (setting [3]) it was above 30 nM; in assay [1], 200 nM; in the assay on PC3 cells, 250 nM; in the assay on U87MG cells, above 30 nM; in the assay with MMT cells it was 250 nM. The same compound registered an IC50 in the assay on U251 cells of 150 nM.

As for `COc1cc2cc(c1Cl)N(C)C(=O)C[C@H](OC(=O)[C@H](C)N(C)C(=O)CCSSC)[C@]1(C)O[C@H]1[C@H](C)[C@@H]1C[C@@](O)(NC(=O)O1)[C@H](OC)/C=C/C=C(\C)C2` [Compound 9, Maytansin-3-N-methyl-L-(S)-alanine-propanamidyl-3-methyldisulfide], the IC50 in the assay with HEK293 cells (setting [2]) turned out to be 0.2 nM; in assay [1], 1.5 nM; in the assay on PC3 cells, 0.4 nM; in the assay on MMT cells, 0.3 nM; in the assay with U251 cells, 0.4 nM.

`COc1cc2cc(c1Cl)N(C)C(=O)C[C@H](OC(=O)[C@H](C)N(C)C(=O)CCN)[C@]1(C)O[C@H]1[C@H](C)[C@@H]1C[C@@](O)(NC(=O)O1)[C@H](OC)/C=C/C=C(\C)C2` [Compound 27, Maytansin-3-N-methyl-L-(S)-alanine-β-alanine]: the IC50 in the assay with HEK293 cells (setting [3]) and in the assay with U87MG cells was above 30 nM in each case.

In the case of `COc1cc2cc(c1Cl)N(C)C(=O)C[C@H](OC(=O)[C@H](C)N(C)C(=O)CCCN)[C@]1(C)O[C@H]1[C@H](C)[C@@H]1C[C@@](O)(NC(=O)O1)[C@H](OC)/C=C/C=C(\C)C2` [Compound 29, Maytansin-3-N-methyl-L-(S)-alanine-γ-aminobutyramide], the IC50 with HEK293 cells (setting [3]) and in the assay on U87MG cells was above 30 nM each time.

For the compound `CNCCCC(=O)N(C)[C@@H](C)C(=O)O[C@H]1CC(=O)N(C)c2cc(cc(OC)c2Cl)C/C(C)=C/C=C/[C@@H](OC)[C@@]2(O)C[C@H](OC(=O)N2)[C@@H](C)[C@@H]2O[C@@]12C` [Compound 31, Maytansin-3-N-methyl-L-(8)-alanine-N-Me-γ-aminobutyramide], the concentration for half-maximal inhibition (IC50) in the assay on HEK293 cells (setting [3]) and in the assay on U87MG cells was above 30 nM each time.

Take `COc1cc2cc(c1Cl)N(C)C(=O)C[C@H](OC(=O)[C@H](C)N(C)C(=O)c1ccc3c(c1)CCNC3)[C@]1(C)O[C@H]1[C@H](C)[C@@H]1C[C@@](O)(NC(=O)O1)[C@H](OC)/C=C/C=C(\C)C2` [Compound 33, Maytansin-3-N-methyl-L-N-alanine-N-carboxy-6-(1,2,3,4-tetrahydroisoquinoline)]: the IC50 in the assay with HEK293 cells (setting [2]) was 20 nM; in assay [1] it was 20 nM; in the assay with PC3 cells, 30 nM; in the assay with MMT cells, 20 nM; with U251 cells it was 15 nM.

In the case of `COc1cc2cc(c1Cl)N(C)C(=O)C[C@H](OC(=O)[C@H](C)N(C)C(=O)C1CCNCC1)[C@]1(C)O[C@H]1[C@H](C)[C@@H]1C[C@@](O)(NC(=O)O1)[C@H](OC)/C=C/C=C(\C)C2` [Compound 35, Maytansin-3-N-methyl-L-(S)-alanine-N-carboxy-4-piperidine], the IC50 was determined as 50 nM in the assay on HEK293 cells (setting [2]); 55 nM in assay [1]; 65 nM in the assay with PC3 cells; 60 nM in the assay on MMT cells; 25 nM with U251 cells.
